Residue numbers refer to the chain shown, from its start. Converted amounts (≈) assume the structure as drawn.
Columns and labels:
[1] = test system: N. gonorrhoeae FA1090E-3 (GyrA^A92T/ParC^D86N); experiment: MIC by agar dilution, GyrA^A92T/ParC^D86N strain; assay type: cell-based, Neisseria gonorrhoeae
Description: This strain was designated FA1090E-3 (GyrA^A92T/ParC^D86N).
(§1) Minimum inhibitory concentration (MIC) of test compounds was determined by an agar dilution method, the reference testing method for N. gonorrhoeae according to the standards of the Clinical and Laboratory Standards Institute and the CDC.

[2] = test system: N. gonorrhoeae FA1090-Q1 (GyrA^S91F/D95G, ParC WT); experiment: MIC by agar dilution, fluoroquinolone-resistant GyrA^S91F/D95G strain; assay type: cell-based; details: Neisseria gonorrhoeae
Description: as §1

[3] = molecular target: N. gonorrhoeae topoisomerase IV ParC^S87N (Neisseria gonorrhoeae, UniProt P48374, S87N); experiment: biochemical
Description: (§2) Some experiments replaced MgCl2 with an equivalent concentration of CaCl2 (10 mM), or 1.5 mM ATP was added to assay mixtures.
(§3) Reactions were incubated at 37 °C for 30 min with WT and mutant (GyrA^D90N, GyrA^A92T, GyrA^S91F, GyrA^D95G, or GyrA^S91F/D95G) N. gonorrhoeae gyrase, 10 min with WT N. gonorrhoeae topoisomerase IV, and 20 min with mutant (ParC^D86N, ParC^S88P, ParC^S87N, or ParC^E91G) N. gonorrhoeae topoisomerase IV. Enzyme-DNA cleavage complexes were trapped by adding 2 μL of 5% SDS followed by 2 μL of 250 mM EDTA (pH 8.0). Proteinase K was added (2 μL of a 0.8 mg/mL solution), and reaction mixtures were incubated at 45 °C for 30 min to digest the enzyme. Samples were mixed with 2 μL of loading buffer and heated at 45 °C for 2 min prior to electrophoresis in 1% agarose gels in 40 mM Tris-acetate (pH 8.3), and 2 mM EDTA containing 0.5 μg/mL ethidium bromide. DNA bands were visualized by midrange ultraviolet light and quantified using an Alpha Innotech digital imaging system (Protein Simple). Single-stranded DNA cleavage was monitored by the conversion of negatively supercoiled to nicked plasmid molecules.

[4] = test system: N. gonorrhoeae topoisomerase IV ParC^S87N; experiment: biochemical; details: ParC S87N vs WT
Description: as §2, §3

[5] = molecular target: T1, N. gonorrhoeae topoisomerase IV ParC^S88P (Neisseria gonorrhoeae, UniProt P48374, S88P); experiment: biochemical
T1 sequence (P48374 1-768 S88P): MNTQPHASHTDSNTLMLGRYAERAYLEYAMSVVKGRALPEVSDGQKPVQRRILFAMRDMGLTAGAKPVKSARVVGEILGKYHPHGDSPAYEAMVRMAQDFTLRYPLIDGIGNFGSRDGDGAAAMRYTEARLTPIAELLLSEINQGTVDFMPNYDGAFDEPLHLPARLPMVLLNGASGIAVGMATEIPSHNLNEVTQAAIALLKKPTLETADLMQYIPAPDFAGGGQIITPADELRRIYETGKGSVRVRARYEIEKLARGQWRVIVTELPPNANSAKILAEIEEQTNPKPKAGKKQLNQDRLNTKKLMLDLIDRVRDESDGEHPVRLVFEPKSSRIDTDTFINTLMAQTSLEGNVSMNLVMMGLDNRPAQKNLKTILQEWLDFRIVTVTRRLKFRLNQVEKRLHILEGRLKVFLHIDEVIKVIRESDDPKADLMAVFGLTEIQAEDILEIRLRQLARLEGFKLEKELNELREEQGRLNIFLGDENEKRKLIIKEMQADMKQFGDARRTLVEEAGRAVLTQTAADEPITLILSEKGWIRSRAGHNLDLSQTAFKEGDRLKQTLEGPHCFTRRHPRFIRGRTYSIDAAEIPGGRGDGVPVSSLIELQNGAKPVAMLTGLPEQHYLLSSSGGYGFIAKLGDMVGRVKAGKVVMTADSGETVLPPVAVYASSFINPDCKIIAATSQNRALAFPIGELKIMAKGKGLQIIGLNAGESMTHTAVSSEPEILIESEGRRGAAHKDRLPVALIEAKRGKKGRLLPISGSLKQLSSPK
Description: as §2, §3

[6] = test system: N. gonorrhoeae topoisomerase IV ParC^S88P; experiment: biochemical; details: ParC S88P vs WT topoisomerase IV
Description: as §2, §3

[7] = molecular target: T2, WT N. gonorrhoeae topoisomerase IV (Neisseria gonorrhoeae, UniProt P48374); experiment: biochemical
T2 sequence (P48374 1-768): T1 sequence (P48374 1-768 S88P) with P88S
Description: as §2, §3

N. gonorrhoeae topoisomerase IV ParC^S87N (Neisseria gonorrhoeae, UniProt P48374, S87N), sequence (P48374 whole entry S87N): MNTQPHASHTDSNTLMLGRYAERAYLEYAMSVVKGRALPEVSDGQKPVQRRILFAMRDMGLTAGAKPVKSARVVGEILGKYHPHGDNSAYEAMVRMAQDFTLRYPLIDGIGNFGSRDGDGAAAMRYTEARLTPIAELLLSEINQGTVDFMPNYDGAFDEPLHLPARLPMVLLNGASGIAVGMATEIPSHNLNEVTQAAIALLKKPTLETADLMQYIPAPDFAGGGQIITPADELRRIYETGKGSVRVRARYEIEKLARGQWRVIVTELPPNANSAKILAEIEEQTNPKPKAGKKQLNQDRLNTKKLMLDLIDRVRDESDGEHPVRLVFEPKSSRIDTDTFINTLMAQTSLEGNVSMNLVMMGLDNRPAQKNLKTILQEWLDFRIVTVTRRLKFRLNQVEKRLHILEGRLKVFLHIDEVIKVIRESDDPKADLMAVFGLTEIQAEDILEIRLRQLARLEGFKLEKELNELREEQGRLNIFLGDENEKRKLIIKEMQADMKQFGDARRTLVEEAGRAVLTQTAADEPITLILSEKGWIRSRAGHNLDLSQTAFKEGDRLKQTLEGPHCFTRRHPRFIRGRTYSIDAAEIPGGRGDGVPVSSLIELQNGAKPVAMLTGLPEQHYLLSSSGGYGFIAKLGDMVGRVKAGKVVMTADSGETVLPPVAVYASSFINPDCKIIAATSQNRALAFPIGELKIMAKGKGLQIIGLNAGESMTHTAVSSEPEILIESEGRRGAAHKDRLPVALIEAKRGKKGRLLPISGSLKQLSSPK

## O=c1ccc2ncc(=O)n3c2n1C[C@H]3CN1CCC(NCc2cc3c(cn2)OCCC3)CC1 [gepotidacin]
[1]; Neisseria gonorrhoeae
  MIC: 8 µg/mL (≈ 17.8 µM)
[1]; strain FA1090E-3 vs FA1090E
  fold-change in MIC from WT/WT parental strain: 16 fold
[2]
  MIC: 0.125 µg/mL (≈ 0.279 µM)
[3]
  EC50: 600 nM
[4]
  fold decrease of Adj-Max Cleavage vs WT: ~4.2 fold
[5]
  EC50: 200 nM
[6]
  more single-stranded DNA cleavage with mutant enzyme compared to WT: ~40%
[7]
  EC50: 600 ± 200 nM
[7]; WT topoisomerase IV, 1.5 mM ATP
  effect of ATP on potency and maximal DNA cleavage: little effect
[7]; WT topoisomerase IV, Mg2+ replaced with Ca2+
  effect on double-stranded DNA breaks: clear suppression
[7]; WT topoisomerase IV, adjusted for baseline cleavage
  Adj-Max Cleavage, single-stranded DNA breaks: ~42.8%
[7]; WT topoisomerase IV, up to 200 μM gepotidacin, up to 180 min
  additional enhancement of double-stranded DNA breaks above baseline: not observed

From publication PMC12624743 (ACS Infectious Diseases, 2025)
